Results published in ChEMBL document CHEMBL3507680, “University of Dundee, Gates Library screen for HepG2 cell viability”.

Assay: Human HepG2 cell viability assay in 384 well format
Assay type: toxicity, cell-based
Design: dose 125 nL, time 70.5 hour; concentration not given beside the values
Settings: HepG2 cells, read-out: Inhibition

Row | SMILES | cytotoxicity at 70.5 h [%]
1 | CCC[C@@H]1CN(Cc2ccccc2C#N)C[C@H]1NC(C)=O | -1.98
2 | CCOCc1cnc2n1CCN(C(=O)C1=CCCC1)C2C (stereo unspecified) | -2.23
3 | O=C1CC(c2cccs2)Cc2[nH]c(=O)c(C(=O)NC3CCCC3)cc21 (stereo unspecified) | -12.4
4 | CCNC(=O)CNC(=O)c1nc(C2CC2)n(-c2ccccc2Cl)n1 | -2.36
5 | O=C(O)C(c1ccc2c(c1)OCCO2)N1CCSCC1 (stereo unspecified) | -3.24
6 | COCCNC(=O)CN1CC=C(n2c(C)nc(=O)c3ccccc32)CC1 | 0.895
7 | Cc1nc(C)n(C2CCCN(C(=O)c3ccc4nccn4c3)C2)n1 (stereo unspecified) | 22.7
8 | CCn1nnc(NCc2ccc(-c3ccc(Br)cc3)o2)n1 | -7.12
9 | CN(CC(=O)N(C)C)Cc1ccc(C#N)cc1F | 11.5
10 | CC(C)CN1C(=O)C2(CCN(Cc3ccoc3)C2)c2ccccc21 (stereo unspecified) | -14.2
11 | Cc1c(C(=O)NCCC2CN(C)CCO2)n(C)c2c(C)cccc12 (stereo unspecified) | -27
12 | COCc1cc(N(C)Cc2ncnn2C)nc(C(C)(C)C)n1 | -10.6
13 | CC(=O)N1CCN(Cc2nnc(C(C)(C)C)o2)CC1 | -8.04
14 | CC(=O)N1CCC(C)(c2cc(C(=O)NCC3CC3)nc(C)n2)CC1 | -1.84
15 | CC(C)CC1SCC(=O)Nc2c1cnn2-c1ccc(F)cc1 (stereo unspecified) | -6.67
16 | CCN(CC)C(=O)CCNC(=O)N(C)Cc1ccc(SC)c(OC)c1 | -11.2
17 | NC(=O)c1ccc(N2CCN(Cc3c(Cl)cncc3Cl)CC2)nc1 | 10.8
18 | Cc1ccc2c(c1)SCC(=O)N2CC(=O)N1CCCC1c1cc(C)no1 (stereo unspecified) | 12.8
19 | CCn1c(Cn2ccnc2)nnc1C1CCN(Cc2ccc(C)o2)CC1 | 5.39
20 | c1cnn(CC2CN(c3ncnc4ccsc34)CCO2)c1 (stereo unspecified) | -0.0557
21 | Cc1nn(C)c(N(C)C)c1CNC(C)COc1ccccc1F (stereo unspecified) | -11.1
22 | O=S(=O)(NCCC(O)c1cccs1)c1c(F)cccc1F (stereo unspecified) | -14.6
23 | O=C(Nc1nc(-c2ccccc2)ns1)N1CCN(C(=O)C2CC2)CC1 | -0.566
24 | COCCNC(=O)N1CCSC2(CCCCC2)C1 | -4.21

Row | SMILES | cytotoxicity at 70.5 h [%]
25 | COCCOCC(=O)NC(C#N)c1ccccc1C (stereo unspecified) | -7.18
26 | COc1ccc(OC)c(NC(=O)N2CCCC2c2ccco2)c1 (stereo unspecified) | -12.9
27 | CC(C)CC(=O)N1CCC2(CC1)COCCN2Cc1ccc(F)cc1 | -11.1
28 | COCc1nc(-c2ccc(S(=O)(=O)N3CCCC3)cc2)cs1 | -3.85
29 | CC(C)NC(=O)N1CCC2(COCc3cnc(-c4cccnc4)nc32)C1 (stereo unspecified) | -2.99
30 | CCCn1nc(C(=O)N2CCCC2c2noc(C)n2)ccc1=O (stereo unspecified) | -0.244
31 | CCn1cnnc1CNC(=O)NC(c1ccc(OC)cc1)C1CC1 (stereo unspecified) | -6.45
32 | CC(C)C(NC(=O)C1CC1)c1cc(O)nc(-c2cccnc2)n1 (stereo unspecified) | -0.322
33 | CN(C)C(=O)c1cccc(C2CNCCN2C)c1 (stereo unspecified) | -4.31
34 | CCN1CCc2cc(C(=O)N(C)C)c(NCC3CC3)nc2CC1 | 2.86
35 | Oc1ccc(N2CCN(Cc3cc4c(cc3Br)OCCO4)CC2)cc1 | 5.3
36 | CC(C)Oc1ccc(C(=O)Nc2nncs2)cn1 | 5.43
37 | Cn1cc(CN2CCCC(CCc3c(F)cccc3F)C2)cn1 (stereo unspecified) | 1.58
38 | CNc1cc(C2CCCN2S(=O)(=O)c2cccc(F)c2)ccn1 (stereo unspecified) | 14.1
39 | CN1CCC(Nc2ccc(Cl)cc2OCC(F)(F)F)C1=O (stereo unspecified) | -3.11
40 | O=C(CCc1nc2cc(Br)cnc2[nH]1)NCCN1CCOCC1 | -10.2
41 | CCN(CC)Cc1cc(C(=O)N2CCC3(CC2)NCCNC3=O)c(C)o1 | 1.97
42 | CC(C)(C)c1cc2ncn(CCCN3CCCCC3CO)c(=O)c2s1 (stereo unspecified) | -14.7
43 | Cc1ccccc1-c1cncc(C2CCN(C3CCOCC3)CC2)n1 | 1
44 | CNS(=O)(=O)c1ccc(CN2CCCC2c2ccc(F)cc2)cc1 (stereo unspecified) | -5.9
45 | CS(=O)(=O)CC(=O)N(CCN1CCOCC1)Cc1ccco1 | 22.7
46 | CCn1ncc(S(=O)(=O)N[C@@H]2CC[C@@H](n3ccnc3)[C@@H]2O)c1C | -10.4
47 | COc1ccc(OC)c(-c2cc(C(=O)NCC3(CO)CC3)n(C)n2)c1 | -5.05
48 | CSCCC1CC(=O)Nc2cc(O)c(C)cc21 (stereo unspecified) | 25.3

Row | SMILES | cytotoxicity at 70.5 h [%]
49 | COc1cc(CNC(=O)c2c(C)noc2C)ccn1 | -4.45
50 | CSCCC(=O)N1CCN(CC(C)(C)O)CC1 | -13.7
51 | Cc1ccc(CN(C(=O)NCc2nnc3n2CCCCC3)C2CC2)o1 | -10.9
52 | O=C1C[C@H]2[C@H](CCN2C(=O)c2cc[nH]n2)N1Cc1cccnc1 | -9.27
53 | Cc1cc(CNc2ccccc2N2CCCCC2)no1 | -24
54 | Cc1cc(N2CCC3(CCCN(CCO)C3=O)C2)nc2cc(Cl)ccc12 (stereo unspecified) | -19.8
55 | CN1CCN(Cc2cnc3n2CCN(C(=O)c2ccoc2)C3)CC1 | -7.31
56 | COc1cc(CN2CCn3c(CO)nnc3C2)ccc1OC(C)C | 34.7
57 | CCN(C(c1cccnc1)c1ccc(F)cc1F)S(C)(=O)=O (stereo unspecified) | -12.1
58 | Cc1c2ncn(CC(=O)NC(C)C)c(=O)c2nn1C | 3.83
59 | CCOc1ccc(Cl)c(C(=O)N2CCCC(c3cc(C)[nH]n3)C2)n1 (stereo unspecified) | -2.21
60 | Cc1cc(C)c2c(c1)C(NC(=O)CSCc1ccncc1)CCO2 (stereo unspecified) | -7.37
61 | Cc1ccc(CNC(=O)N2CCc3ccccc3C2CO)s1 (stereo unspecified) | -5.32
62 | CC1c2ncc(COCC3CC3)n2CCN1C(=O)c1ccnnc1 (stereo unspecified) | -5.45
63 | CCCn1c(C)c(CC(=O)NC(C)CO)c2c1CC(C)(C)CC2=O (stereo unspecified) | 9.89
64 | CCOC(=O)N1CCCn2nc(C(=O)NCCN(C)C)cc2C1 | -6.9
65 | Cc1ccc2c(c1)OC(C)CN2C(=O)CCc1cscn1 (stereo unspecified) | 0.46
66 | Cc1cc(C)c2cc(CNCc3ccc(C)o3)c3nn(C)c(=O)n3c2c1 | -5.87
67 | Cn1cc(C(=O)N2CCCC(c3cc(O)n(C)n3)C2)cn1 (stereo unspecified) | 7.43
68 | Cc1noc(C)c1C(=O)NCCSCc1cccs1 | 0.282
69 | Cc1nc(CC(=O)N2CCC(Nc3cccnn3)CC2)cs1 | -6.73
70 | Nc1cccc(C2CN(C(=O)CN3CCOCC3)CCO2)n1 (stereo unspecified) | -4.5
71 | Cc1occc1C(=O)N1CC(C(=O)N2CCOCC2)C2(CCOCC2)C1 (stereo unspecified) | 6.2
72 | CC(C)c1nc(C2CCCN2Cc2ccccc2C#N)no1 (stereo unspecified) | 5.38

Row | SMILES | cytotoxicity at 70.5 h [%]
73 | c1ccc(CCCN2CC[C@H](c3nnc(-c4cccnc4)o3)C2)cc1 | -10.6
74 | CCc1cc(C(=O)N2CCCC2c2nc(C)c(CC)c(O)n2)on1 (stereo unspecified) | -6.15
75 | O=C(NCCN1CCOCC1)c1ccc(OCc2ccccc2)nc1 | -1.05
76 | Cc1nc(Cn2c3c(ccc2=O)CCN(CC2CC2)CC3)cs1 | -2.72
77 | COc1ccccc1OCC(=O)NS(=O)(=O)c1ccc(Cl)cc1F | 13.3
78 | O=C(c1ccncc1F)N1C[C@@H]2OCCN(CC3CC3)[C@@H]2C1 | -12.9
79 | CSCC[C@@H](CO)NC(=O)c1ccc2nc(NS(C)(=O)=O)sc2c1 | -1
80 | CCCN1CCN(Cc2nccn2CC)C(C)C1 (stereo unspecified) | 19.6
81 | O=C(O)C1(Oc2ccc3ccccc3c2)CCN(c2ccncc2)CC1 | 21.4
82 | Cc1cc(NCCC(=O)NC2CCS(=O)(=O)C2)nc(-c2ccncc2)n1 (stereo unspecified) | -8.91
83 | NS(=O)(=O)c1cnc(NCC2(c3cccc(F)c3)CCOCC2)s1 | -0.912
84 | Fc1ccc(C(NCc2nnc(-c3ccco3)o2)C2CCC2)cc1 (stereo unspecified) | -12
85 | CCCS(=O)(=O)N1CCN(c2cc(-n3cccc3)nc(C)n2)CC1 | -5.53
86 | Cc1nccc(N2CCCC(C)(C(=O)NC3CCCC3)C2)n1 (stereo unspecified) | -15.1
87 | CNC(=O)C(C)(C)N1CCC[C@H]1C(=O)NC1CC1 | -9.14
88 | CC(C)N1CCOCC2(CCCN(C(=O)c3cn(C)cn3)C2)C1 (stereo unspecified) | 0.0869
89 | Cc1ccccc1CN1CCC2(COCc3cnc(N(C)C)nc32)C1 (stereo unspecified) | 0.683
90 | Cc1sc(CN)nc1-c1ccc(Cl)cc1 | 4.14
91 | C1CCN(Cc2nnn3c2CN(CC2CC2)CCC3)C1 | 0.89
92 | CCC(=O)Nc1ccc2c(c1)C1(CCOCC1)CN2CCF | 16.7
93 | CC1c2ncc(CNC(=O)C3CC3)n2CCN1Cc1ccncc1 (stereo unspecified) | -16.1
94 | COC(=O)c1cccc(OCCn2nc(-c3cccs3)oc2=O)c1 | -21.5
95 | Cc1ccc(Nc2nccc(C3CN(C(C)C)C3)n2)nc1 | 42.5
96 | Fc1ccc(CNCc2nnc3n2CC(C(F)(F)F)CC3)c(F)c1 (stereo unspecified) | -7.11

Row | SMILES | cytotoxicity at 70.5 h [%]
97 | Cc1nc(NC(=O)c2c3c(nn2C2CCS(=O)(=O)C2)CCC3)sc1C (stereo unspecified) | 16.2
98 | COCC(=O)NCc1cc2n(n1)CCCN(CCCC1CCCC1)C2 | -2.24
99 | Cc1nc(C)n(C2CCCN(C(=O)COc3ccccc3)C2)n1 (stereo unspecified) | -8.86
100 | CCc1nccn1-c1cccc(C2CCCN2S(=O)(=O)N(C)C)n1 (stereo unspecified) | -7.54
101 | Cc1ccoc1C(=O)N1CCOC2(CCCC2)C1 | -2.84
102 | CCN1C(=O)CCC12CCN(C(=O)c1ccco1)CC2 | -11.8
103 | CCCc1nnc(N2CCN(c3ccccc3OCC)CC2)o1 | -4.12
104 | O=C(NCCCOCC1CCCO1)c1cccnc1N1CCCC1 (stereo unspecified) | 1.79
105 | CCN(CC1CCOC1)S(=O)(=O)Cc1cc(Cl)ccc1OC (stereo unspecified) | -14.8
106 | Cc1nccn1-c1ccc(=O)n(CCNC(=O)c2ccccn2)n1 | -6.46
107 | Cc1nc(C2(NCC(=O)NCCc3cccs3)CCCC2)no1 | -9.55
108 | O=C(NC1CCS(=O)(=O)C1)c1ccc(SCc2cscn2)cc1 (stereo unspecified) | -6.01
109 | CC(C)n1c(=O)c2ccccc2n(CCN2CCCCC2)c1=O | -12.6
110 | Cc1cc(Br)c(O)c(-c2nc(N3CCOCC3)sc2C)c1 | 5.07
111 | Cc1cc(CN2CCC(c3ccnn3CCO)CC2)no1 | -15.5
112 | O=C(NCCc1ccc(I)s1)N1CCC1 | -2.1
113 | CCOc1cc2c(cc1C(=O)O)CCC2 | 11.4
114 | Cc1nn(C)c2ncc(CNCCc3ccccn3)cc12 | -8.59
115 | COC(=O)C1CCN(C(=O)Nc2cc(-n3cccc3)ccc2F)CC1 | -6.77
116 | CCC1C(=O)NCCN1c1cc(C)ncn1 (stereo unspecified) | -22.8
